Assay results reported in publication PMC6988309, “Preclinical efficacy for a novel tyrosine kinase inhibitor, ArQule 531 against acute myeloid leukemia” (Journal of Hematology & Oncology, 2020).

Tested on: MOLM-13, MV4-11, and OCI-AML3 cell lines
Experiment: Annexin/PI apoptosis assay 72 h
Format: cell-based, human
Conditions: increasing concentrations of ARQ 531 or 50 nM gilteritinib
Description: Cells were treated for 72 h then stained for 20 min in 1X Annexin Binding buffer (BD Biosciences, Franklin Lakes, NJ) containing Annexin V-FITC and Propidium Iodine (Leinco Technologies, Fenton, MO). Live and apoptotic cells were measured using FC 500 flow cytometer and analyzed on Kaluza software (Beckman Coulter, Pasadena, CA).

O=C(c1ccc(Oc2ccccc2)cc1Cl)c1c[nH]c2ncnc(N[C@@H]3CC[C@@H](CO)OC3)c12 [ARQ 531] was tested, and the “apoptosis / cytotoxicity (Annexin/PI)” value was “induced cell apoptosis”.
